Measurements taken from paper PMC7806714, “Statins for the prevention of proliferative vitreoretinopathy: cellular responses in cultured cells and clinical statin concentrations in the vitreous” (Scientific Reports, 2021).
Read-outs that look alike come from different tables or passages of the source.

How the values were obtained:
[1] = test system: ARPE-19 cells; test: LDH release assay (cell membrane integrity); format: cell-based, human
Description: (§1) Cell viability was assessed by determining the amount of LDH enzyme from culture media using a commercial kit (Promega Corporation, USA) according to the manufacturer’s protocol. This assay provides information about the integrity of the plasma membranes of the cells (high LDH levels meaning cell damage). In addition, the cell viability was examined with MTT assay, as described previously. In viable cells, the mitochondrial succinate dehydrogenase enzyme can metabolize the MTT dye into formazan that absorbs light at the 550 nm wavelength.

[2] = MTT cell viability assay; format: cell-based, human; details: human, ARPE-19 cells; dissolved in DMSO; read-out: Cell viability (MTT) compared to DMSO control
Description: as §1

[3] = UPLC-MS/MS statin and metabolite concentrations in vitreous of vitrectomy patients on oral statins; format: in vivo, human
Description: The study was conducted according to the tenets of the Declaration of Helsinki, and was approved by the Institutional Review Board and Ethical committee of Helsinki University Central Hospital. Twenty patients were enrolled; fifteen with per oral statin treatment and five controls. Signed informed consent was obtained from each participant prior to the vitreous sampling. Confidentiality of the patient records was maintained when the clinical data were entered into a computer-based standardized data entry for analysis. Sixteen patients were being operated due to PDR; of these, five patients had also Tractional Retinal Detachment (TRD); two patients were operated due to RRD, one due to age-related epiretinal fibrosis (pucker), and one due to a macular hole (Supplementary Table S2). […] All vitrectomies were performed by the recruiting vitreoretinal surgeon (SL). […] The samples were collected by manual aspiration into a syringe via the vitrectomy with the cutting function activated. Sample aliquots were transferred into sterile 1.5 mL microcentrifuge tubes (Freemont, CA, USA) and immediately frozen and stored at − 70 °C until laboratory analysis. […] All reference compounds and internal standards were purchased from Toronto Research Chemicals (Toronto, Canada). Samples (100 µl) were divided into two aliquots and kept at − 80 °C prior to analysis. […] Homogenizer blocks were pre-cooled by placing them at − 20 °C. […] Supernatants (120 µl) were pipetted into analytical vials and the concentrations of the statins were measured with Ultra-high Pressure Liquid Chromatography—tandem Mass Spectrometry (UPLC-MS/MS) technique. The same pre-treatment protocol was used to prepare calibration curves and quality control samples but homogenized and filtered porcine vitreous were used as a matrix instead of human vitreous. A minimum of six calibration curve concentrations was used for quantitation of the compounds. Two parallel calibration curve sets included all eleven analytes and four deuterated internal standards. Three quality control samples in three parallel sets were used to validate the method. The linear range varied from approximately 0.004 to 10 ng/mL depending on the analyte. Limit of quantitation was set to the smallest calibration curve point of each drug. Each sample was analysed twice and the average of these values was designated as the concentration of the sample. […] For rosuvastatin, two metabolites were analysed: rosuvastatin lactone and N-desmethyl rosuvastatin lactone. Rosuvastatin D6 was used as an internal standard. The parent drug, its metabolites and internal standard were analysed from the same sample in each case. Liquid chromatography separation was carried out using a Waters Acquity UPLC instrument (Waters, MA, USA) coupled with Waters HSS T3 C18 (2.1 × 100 mm, 1.8 µm) column at 40 °C. The mobile phase consisted of 0.1% formic acid in ultrapure water (A) and 100% of LC–MS grade acetonitrile (B). […] The flow rate was set to 0.3 mL/min and injection volume 1.5 µl. After every three samples, a solvent blank was run to control for any carry over. Mass spectrometry measurements were carried out using a Waters Xevo Triple Quadruple mass spectrometer (TQ-S) equipped with an ESI source. […] The source parameters were as follows: Capillary voltage 2.8 kV, source temperature 150 °C and desolvation temperature 500 °C. Nitrogen (Aga, Helsinki, Finland) was used as a desolvation gas (800 l/h), a cone gas (150 l/h) and a nebulizer gas (7 bar). Argon (Aga, Helsinki, Finland) was used as a collision gas (0.15 mL/min). The Multiple Reaction Monitoring (MRM) mode was used for quantification. Precursor and fragment ions, as well as other optimized parameters are listed in Supplementary Table S3.

[4] = Calculated average steady-state plasma (Eq. 1) and expected vitreal concentrations (Eq. 3); design: species or system human; details: for Calc. Cv: expected vitreal, Eq. 3; for Css,av: plasma, Eq. 1
Description: The concentrations of statins and their metabolites in the vitreous were analysed (see above) and expressed as ng/mL concentrations. These concentrations were compared to published statin concentrations in plasma. […] Maximum concentrations in plasma and the area under the concentration vs time curve values were collected. The expected average statin concentrations in plasma during multiple dose treatment were calculated for the doses that the patients received in our study (Eq. 1):1 Css,av=AUCsingledose/τ where τ is the time interval between doses. The drug concentrations in plasma (C, Cmax, Css, av) include both unbound (Cu) and protein-bound drug. The values for protein binding were obtained from the summary of drug product characteristics for each statin. The free fraction of statin in plasma was calculated based on Eq. (2):2 fu=CuC
The expected drug concentrations in the patients’ vitreous samples were calculated according to Eq. (3)3 Cv=fu×Css,av
Equation (3) assumes that the vitreal drug concentrations equilibrate with the unbound drug concentrations in plasma, because only free drug is expected to cross the blood-ocular barriers.

[5] = plasma, cited from earlier work
[6] = test system: IL-6; test: ELISA of LPS-induced IL-6 release from ARPE-19 cells
[7] = test system: IL-8; test: ELISA of LPS-induced IL-8 release from ARPE-19 cells; details: 5 µM, 24 h prior to LPS
[8] = test system: MCP-1; test: ELISA of LPS-induced MCP-1 release from ARPE-19 cells
[9] = oral 20 mg/d, patients' vitreous
[10] = 10 mg/d single oral dose, n=12, China, ref [30]
[11] = 10 mg/d single oral dose, n=18, Germany, ref [31]
[12] = 20 mg/d single oral dose, n=6, UK, ref [32]
[13] = 20 mg/d single oral dose, n=12, Chinese, ref [30]
[14] = 48 h exposure prior to LPS, 1.5, 5, 10 µM tested

CC(C)c1nc(N(C)S(C)(=O)=O)nc(-c2ccc(F)cc2)c1/C=C/[C@@H](O)C[C@@H](O)CC(=O)O [Rosuvastatin]
LDH levels / cell membrane integrity ([1]; 24 h exposure, with LPS, dissolved in DMSO): more damage to the cell membrane
LDH levels / cell membrane integrity ([1]; 24 h exposure, without LPS, dissolved in DMSO): protected the integrity of the cell membrane
LDH levels / cell membrane integrity ([1]; 48 h exposure, with LPS, dissolved in DMSO): protect cells from LPS-induced cell membrane rupturing
LDH levels / cell membrane integrity ([1]; 48 h exposure, dissolved in DMSO): acute toxic effects on the cell membrane
LDH levels / cell membrane integrity ([1]; dissolved in water, 48 h, with LPS): interfered with the cell membrane integrity
LDH levels ([1]; dissolved in water, within 24 h, irrespective of LPS): did not cause any changes in the LDH levels
viability [2]: 88%
vitreous concentration range ([3]; 10–20 mg daily, oral): 52 to 316 pg/mL
Measured Cv Average ([3]; oral 10 mg/d, patients' vitreous): 0.055 ng/mL
Measured Cv Range (lower) [3, 9]: 0.052 ng/mL
Measured Cv Range (upper) [3, 9]: 0.316 ng/mL
Concentration in vitreous sample ([3]; patient 359, Pucker, diabetes, oral rosuvastatin 20 mg): 0.056 ng/mL
Concentration in vitreous sample ([3]; patient 371, PDR, dose 0* (control without reported statin treatment)): 0.241 ng/mL
Concentration in vitreous sample ([3]; patient 383, PDR, oral rosuvastatin 10 mg): 0.055 ng/mL
Concentration in vitreous sample ([3]; patient 397, PDR, oral rosuvastatin 20 mg): 0.168 ng/mL
Concentration in vitreous sample ([3]; patient 412, PDR, oral rosuvastatin 20 mg): 0.316 ng/mL
Concentration in vitreous sample ([3]; patient 428, MH, diabetes, not DR, oral rosuvastatin 20 mg): 0.052 ng/mL
Calc. Cv ([4]; 10 mg/d, China study [30]): 0.513 ng/mL
Calc. Cv ([4]; 10 mg/d, Germany study [31]): 0.242 ng/mL
Calc. Cv ([4]; 20 mg/d, Chinese study [30]): 0.883 ng/mL
Calc. Cv ([4]; 20 mg/d, UK study [32]): 0.314 ng/mL
Css,av ([4]; 10 mg/d, China study [30]): 4.27 ng/mL
Css,av ([4]; 10 mg/d, Germany study [31]): 2.02 ng/mL
Css,av ([4]; 20 mg/d, Chinese study [30]): 7.36 ng/mL
Css,av ([4]; 20 mg/d, UK study [32]): 2.62 ng/mL
AUC0−∞ [5, 10]: 103 ng·h/mL
Cmax [5, 10]: 10.8 ng/mL
AUC0−∞ [5, 11]: 48.4 ng·h/mL
Cmax [5, 11]: 4.5 ng/mL
AUC0−∞ [5, 12]: 63.1 ng·h/mL
Cmax [5, 12]: 6.1 ng/mL
AUC0−∞ [5, 13]: 177 ng·h/mL
Cmax [5, 13]: 19.2 ng/mL
LPS-induced release of IL-6 ([6]; 5 µM, 24 h prior to LPS (rosuvastatin: DMSO and water)): reduced
LPS-induced release of IL-6 ([6]; 10 µM, 24 h prior to LPS (rosuvastatin: DMSO and water)): reduced
LPS-induced release of IL-6 [6, 14]: decreasing trends
LPS-induced release of IL-8 [7]: reduced
LPS-induced release of MCP-1 ([8]; 5 µM, 24 h prior to LPS): decreased
LPS-induced release of MCP-1 [8, 14]: decreasing trends
